Key:
Type in all cases: cell-based
[1] = tested on: P. a. 10145 (Pseudomonas aeruginosa); assay: modified A.O.A.C. germicidal and detergent sanitizer test
Procedure: (§1) The efficacy of the sanitizers in Examples 1, 2 and 3 was further evaluated with […] as controls against Salmonella typhimurium, Listeria monocytogenes, Aeromonas hydrophila, and Pseudomonas aeruginosa essentially by the modified detergent and germicidal sanitizer test of the A.O.A.C. The sanitizers were tested against both natural isolates and the antibiotic resistant strains of Listeria monocytogenes and Salmonella typhimurium. Each of the antibiotic resistant strains was used separately as well as in a composite strain prepared by mixing equal numbers of five different antibiotic resistant strains of Listeria monocytogenes or those of Salmonella typhimurium, respectively.

[2] = tested on: S. t. 7823 (Salmonella typhimurium); assay: as above
Procedure: as §1

[3] = tested on: L. m. 7644 (Listeria monocytogenes); assay: as above
Procedure: as §1

[4] = tested on: A. h. 7965 (Aeromonas hydrophila); assay: as above
Procedure: as §1

[5] = tested on: Escherichia coli ATCC 11229; assay: A.O.A.C. sanitizer and germicidal detergent test
From the text: (§2) The bacterial cultures were purchased from the American Type Culture Collection (ATCC), (Bethesda, Md.). Escherichia coli and Staphylococcus aureus are used to represent both gram-negative and gram-positive bacterial classes. This test is used by the US EPA for to determine compliance for a product to be used as a sanitizing agent. A product that reduces population density of both types of bacteria in 30 seconds by 99.999% satisfies the requirement as a sanitizing agent.

[6] = tested on: Staphylococcus aureus ATCC 6538; assay: A.O.A.C. sanitizer and germicidal detergent test
From the text: as §2

[7] = sanitizer criterion is 99.999% reduction in 30 seconds

OCl [Hypochlorite]
% Kill ([1]; 30 seconds contact): >99.999%
% Kill ([1]; 60 seconds contact): >99.999%
% Kill ([2]; 30 seconds contact): <99.999%
Number of surviving bacteria/ml after contact, cfu/ml ([2]; 30 seconds contact, HOCL = 50 ppm, duplicate counts): T@, T@
% Kill ([2]; 60 seconds contact): >99.999%
% Kill ([3]; 30 seconds contact): >99.999%
% Kill ([3]; 60 seconds contact): >99.999%
% Kill ([4]; 30 seconds contact): >99.999%
% Kill ([4]; 60 seconds contact): >99.999%
meets criterion of a sanitizer (99.999% reduction in 30 seconds) ([5]; Fifty ppm hypochlorite): meets the criterion of a sanitizer
% Kill E. coli [5, 7]: >99.999%
meets criterion of a sanitizer (99.999% reduction in 30 seconds) ([6]; Fifty ppm hypochlorite): meets the criterion of a sanitizer
% Kill Staph. aureus [6, 7]: >99.999%

Source: US20080058421A1, “COMPOSITIONS FOR CLEANING AND DISINFECTING NASAL TRACT AND SINUS CAVITY” (priority 2006, published 2008)
